Like-named read-outs stand apart in the source and are kept apart here.
How the values were obtained:
[1] = snar bond, DMSO
[2] = target: CFTR-mediated chloride transport (Homo sapiens, UniProt P13569); assay type: cell-based; conditions: enteroid cells incubated with test compound 18-24 hours, acute 10 μM forskolin and 300 nM Compound III; for Max. Activity: % of chloride transport with 3 μM Compound A, 3 μM Compound II and 300 nM acute Compound III triple combination control
Procedure, shortened: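 Membrane-potential fluorescence AUC over 15 min quantified CFTR chloride transport after acute forskolin (10 μM), IBMX (100 μM) and Compound III (300 nM) in chloride-free buffer. Human enteroid cells were pretreated with compound for 18–24 h; % Activity is relative to 3 μM Compound A + 3 μM Compound II + 300 nM Compound III.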

CFTR-mediated chloride transport, sequence (P13569 whole entry, looked up): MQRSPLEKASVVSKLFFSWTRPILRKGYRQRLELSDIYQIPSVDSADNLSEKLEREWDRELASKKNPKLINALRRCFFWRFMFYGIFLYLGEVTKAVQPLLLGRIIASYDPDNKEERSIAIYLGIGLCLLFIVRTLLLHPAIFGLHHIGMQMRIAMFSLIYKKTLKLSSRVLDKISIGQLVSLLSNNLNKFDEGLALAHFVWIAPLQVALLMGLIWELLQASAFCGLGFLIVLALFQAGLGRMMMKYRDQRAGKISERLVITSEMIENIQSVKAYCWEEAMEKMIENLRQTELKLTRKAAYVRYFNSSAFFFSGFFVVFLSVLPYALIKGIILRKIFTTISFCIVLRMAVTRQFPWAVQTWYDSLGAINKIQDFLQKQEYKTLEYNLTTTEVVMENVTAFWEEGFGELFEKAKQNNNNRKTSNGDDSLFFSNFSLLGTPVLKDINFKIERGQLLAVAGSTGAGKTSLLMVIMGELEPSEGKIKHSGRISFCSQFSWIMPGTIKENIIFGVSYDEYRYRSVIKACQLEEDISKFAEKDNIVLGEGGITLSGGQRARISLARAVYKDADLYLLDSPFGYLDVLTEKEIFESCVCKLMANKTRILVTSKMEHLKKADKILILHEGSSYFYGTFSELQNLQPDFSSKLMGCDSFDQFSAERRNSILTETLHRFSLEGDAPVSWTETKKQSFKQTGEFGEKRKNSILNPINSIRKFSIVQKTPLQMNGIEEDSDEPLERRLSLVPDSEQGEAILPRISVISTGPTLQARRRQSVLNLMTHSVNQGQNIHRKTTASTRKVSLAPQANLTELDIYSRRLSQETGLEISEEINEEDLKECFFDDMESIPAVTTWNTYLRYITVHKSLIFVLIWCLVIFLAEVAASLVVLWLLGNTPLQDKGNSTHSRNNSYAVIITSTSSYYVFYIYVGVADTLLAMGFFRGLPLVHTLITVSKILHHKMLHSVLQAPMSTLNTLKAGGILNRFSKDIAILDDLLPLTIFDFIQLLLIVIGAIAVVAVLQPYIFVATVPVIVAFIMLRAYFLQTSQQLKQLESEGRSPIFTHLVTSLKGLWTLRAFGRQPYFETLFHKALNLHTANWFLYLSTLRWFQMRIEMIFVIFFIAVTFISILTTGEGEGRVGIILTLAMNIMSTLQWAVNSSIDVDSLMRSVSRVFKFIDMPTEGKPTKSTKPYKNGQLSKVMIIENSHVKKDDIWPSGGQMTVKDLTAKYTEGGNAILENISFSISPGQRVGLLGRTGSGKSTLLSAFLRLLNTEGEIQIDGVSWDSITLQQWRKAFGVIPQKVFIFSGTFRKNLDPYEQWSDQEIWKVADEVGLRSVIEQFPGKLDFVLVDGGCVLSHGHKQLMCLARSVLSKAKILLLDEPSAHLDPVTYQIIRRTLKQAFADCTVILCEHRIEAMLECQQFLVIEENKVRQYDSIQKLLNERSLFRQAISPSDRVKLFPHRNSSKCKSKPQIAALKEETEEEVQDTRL

Structure (SMILES) | EC50 [2] | Max. Activity [2] | other results
CC1(C)CC2CCCn3ccc(n3)S(=O)(=O)NC(=O)c3ccc(-n4ccc(OCCC5(C(F)(F)F)CC5)n4)nc3N1C2 (stereo not drawn) [Compound 32, 20,20-dimethyl-4-(3-{2-[1-(trifluoromethyl)cyclopropyl]ethoxy}-1H-pyrazol-1-yl)-10λ^6-thia-1,3,9,14,22-pentaazatetracyclo[16.2.1.111,14.02,7]docosa-2(7),3,5,11(22),12-pentaene-8,10,10-trione] | < 1 µM | +++ (+++ is >60%) | ring closure, yield after HPLC ([1]; from CC(C)(C)OC(=O)N1CC(CCCn2ccc(S(=O)(=O)NC(=O)c3ccc(-n4ccc(OCCC5(C(F)(F)F)CC5)n4)nc3Cl)n2)CC1(C)C, 14-membered ring, K2CO3/CsF/3A MS, 55.3 mM, 130.0 °C, 2 steps): 40%
CC1(C)CCC2CCCCNc3cccc(n3)S(=O)(=O)NC(=O)c3ccc(-n4ccc(OCCC5(C(F)(F)F)CC5)n4)nc3N21 (stereo not drawn) [Compound 37, 12,12-dimethyl-8-(3-{2-[1-(trifluoromethyl)cyclopropyl]ethoxy}-1H-pyrazol-1-yl)-2λ^6-thia-3,9,11,20,25-pentaazatetracyclo[19.3.1.05,10.011,15]pentacosa-1(24),5,7,9,21(25),22-hexaene-2,2,4-trione] | < 1 µM | + (+ is <30%) | ring closure, yield after HPLC ([1]; from CC1(C)CCC(CCCCNc2cccc(S(=O)(=O)NC(=O)c3ccc(-n4ccc(OCCC5(C(F)(F)F)CC5)n4)nc3Cl)n2)N1, 15-membered ring, K2CO3/CsF, 85.3 mM, 150.0 °C): 25%
CC1(C)CC2CCCNc3cccc(n3)S(=O)(=O)NC(=O)c3ccc(-n4ccc(O)n4)nc3N1C2 (stereo not drawn) [Compound 38, 8-(3-hydroxy-1H-pyrazol-1-yl)-12,12-dimethyl-2λ^6-thia-3,9,11,18,23-pentaazatetracyclo[17.3.1.111,14.05,10]tetracosa-1(22),5,7,9,19(23),20-hexaene-2,2,4-trione] | > 3 µM | ++ (++ is 30-60%) | ring closure, yield after HPLC ([1]; from CC1(C)CC(CCCNc2cccc(S(=O)(=O)NC(=O)c3ccc(-n4ccc(O)n4)nc3Cl)n2)CN1, 15-membered ring, CsF/K2CO3/3A MS, 39.3 mM, 140.0 °C): 17%
CC1(C)CC2CCCNc3cccc(n3)S(=O)(=O)NC(=O)c3ccc(-n4ccc(OCCC(C5CC5)C5CC5)n4)nc3N1C2 (stereo not drawn) [Compound 43, 8-[3-(3,3-dicyclopropylpropoxy)-1H-pyrazol-1-yl]-12,12-dimethyl-2λ^6-thia-3,9,11,18,23-pentaazatetracyclo[17.3.1.111,14.05,10]tetracosa-1(22),5,7,9,19(23),20-hexaene-2,2,4-trione] | < 1 µM | +++ (+++ is >60%) | ring closure, yield after HPLC ([1]; from CC1(C)CC(CCCNc2cccc(S(=O)(=O)NC(=O)c3ccc(-n4ccc(OCCC(C5CC5)C5CC5)n4)nc3Cl)n2)CN1, 15-membered ring, K2CO3/CsF/3A MS, 26.4 mM, 130.0 °C, 2 steps): 55%
CC1(C)CC2CN1c1nc(-n3ccc(OCCC4(C(F)(F)F)CC4)n3)ccc1C(=O)NS(=O)(=O)c1cccc(n1)NCCO2 (stereo not drawn) [Compound 69, 12,12-dimethyl-8-(3-{2-[1-(trifluoromethyl)cyclopropyl]ethoxy}-1H-pyrazol-1-yl)-15-oxa-2λ^6-thia-3,9,11,18,23-pentaazatetracyclo[17.3.1.111,14.05,10]tetracosa-1(22),5(10),6,8,19(23),20-hexaene-2,2,4-trione] | < 1 µM | +++ (+++ is >60%) | ring closure, yield after HPLC ([1]; from CC(C)(C)OC(=O)N1CC(OCCNc2cccc(S(=O)(=O)NC(=O)c3ccc(-n4ccc(OCCC5(C(F)(F)F)CC5)n4)nc3Cl)n2)CC1(C)C, 15-membered ring, HCl (Boc off), K2CO3/CsF/3A MS, 62.3 mM, 150.0 °C, 2 steps): 61%
Cc1nn2cc1S(=O)(=O)NC(=O)c1ccc(-n3ccc(OCCC4(C(F)(F)F)CC4)n3)nc1N1CC(CCCC2)CC1(C)C (stereo not drawn) [Compound 71, 12,21,21-trimethyl-4-(3-{2-[1-(trifluoromethyl)cyclopropyl]ethoxy}-1H-pyrazol-1-yl)-10λ^6-thia-1,3,9,13,14-pentaazatetracyclo[17.2.1.111,14.02,7]tricosa-2,4,6,11(23),12-pentaene-8,10,10-trione] | > 3 µM | + (+ is <30%) | ring closure, yield after HPLC ([1]; from Cc1nn(CCCCC2CNC(C)(C)C2)cc1S(=O)(=O)NC(=O)c1ccc(-n2ccc(OCCC3(C(F)(F)F)CC3)n2)nc1Cl, 15-membered ring, K2CO3/CsF, 130.1 mM, 150.0 °C): 50%
CC1(C)C[C@@H]2CCCOc3cccc(c3)S(=O)(=O)NC(=O)c3ccc(-n4ccc(OCCC5(C(F)(F)F)CC5)n4)nc3N1C2 [Compound 77, (14S)-12,12-Dimethyl-8-(3-{2-[1-(trifluoromethyl)cyclopropyl]ethoxy}-1H-pyrazol-1-yl)-18-oxa-2λ^6-thia-3,9,11-triazatetracyclo[17.3.1.111,14.05,10]tetracosa-1(23),5(10),6,8,19,21-hexaene-2,2,4-trione] | < 1 µM | +++ (+++ is >60%) | ring closure, yield after HPLC ([1]; from CC1(C)C[C@H](CCCOc2cccc(S(=O)(=O)NC(=O)c3ccc(-n4ccc(OCCC5(C(F)(F)F)CC5)n4)nc3Cl)c2)CN1, 15-membered ring, K2CO3/CsF/3A MS, 62.9 mM, 150.0 °C, 20.0 h, 2 steps): 20%
CC1(C)CC2CCCCc3cccc(n3)S(=O)(=O)NC(=O)c3ccc(-n4ccc(OCCC5(C(F)(F)F)CC5)n4)nc3N1C2 (stereo not drawn) [Compound 78, 12,12-dimethyl-8-(3-{2-[1-(trifluoromethyl)cyclopropyl]ethoxy}-1H-pyrazol-1-yl)-2λ^6-thia-3,9,11,23-tetraazatetracyclo[17.3.1.111,14.05,10]tetracosa-1(23),5,7,9,19,21-hexaene-2,2,4-trione] | < 1 µM | +++ (+++ is >60%) | ring closure, yield after HPLC ([1]; from CC(C)(C)OC(=O)N1CC(CCCCc2cccc(S(=O)(=O)NC(=O)c3ccc(-n4ccc(OCCC5(C(F)(F)F)CC5)n4)nc3Cl)n2)CC1(C)C, 15-membered ring, HCl (Boc off), K2CO3/CsF/3A MS, 65.0 mM, 150.0 °C, 2 steps): 37%
CC1(C)CC2CCCOc3ccc(cn3)S(=O)(=O)NC(=O)c3ccc(-n4ccc(OCCC5(C(F)(F)F)CC5)n4)nc3N1C2 (stereo not drawn) [Compound 90, 12,12-dimethyl-8-(3-{2-[1-(trifluoromethyl)cyclopropyl]ethoxy}-1H-pyrazol-1-yl)-18-oxa-2λ^6-thia-3,9,11,20-tetraazatetracyclo[17.2.2.111,14.05,10]tetracosa-1(21),5(10),6,8,19,22-hexaene-2,2,4-trione] | < 1 µM | ++ (++ is 30-60%) | ring closure, yield after HPLC ([1]; from CC(C)(C)OC(=O)N1CC(CCCOc2ccc(S(=O)(=O)NC(=O)c3ccc(-n4ccc(OCCC5(C(F)(F)F)CC5)n4)nc3Cl)cn2)CC1(C)C, 16-membered ring, HCl (Boc off), K2CO3/CsF/3A MS, 61.4 mM, 155.0 °C, 2 steps): 7%
CC1(C)CC2CCCNc3cc(ccn3)S(=O)(=O)NC(=O)c3ccc(-n4ccc(OCCC5(C(F)(F)F)CC5)n4)nc3N1C2 (stereo not drawn) [Compound 93, 12,12-dimethyl-8-(3-{2-[1-(trifluoromethyl)cyclopropyl]ethoxy}-1H-pyrazol-1-yl)-2λ^6-thia-3,9,11,18,20-pentaazatetracyclo[17.3.1.111,14.05,10]tetracosa-1(22),5,7,9,19(23),20-hexaene-2,2,4-trione] | < 1 µM | +++ (+++ is >60%) | ring closure, yield after HPLC ([1]; from CC(C)(C)OC(=O)N1CC(CCCNc2cc(S(=O)(=O)NC(=O)c3ccc(-n4ccc(OCCC5(C(F)(F)F)CC5)n4)nc3Cl)ccn2)CC1(C)C, 15-membered ring, TFA (Boc off), CsF/K2CO3/3A MS, 26.0 mM, 130.0 °C, 2 steps): 30%
Cc1ccc2nc1OCCC[C@@H]1CN(c3nc(-n4ccc(OCCC5(C(F)(F)F)CC5)n4)ccc3C(=O)NS2(=O)=O)C(C)(C)C1 [Compound 109, (14S)-12,12,20-Trimethyl-8-(3-{2-[1-(trifluoromethyl)cyclopropyl]ethoxy}-1H-pyrazol-1-yl)-18-oxa-2λ^6-thia-3,9,11,23-tetraazatetracyclo[17.3.1.111,14.05,10]tetracosa-1(23),5(10),6,8,19,21-hexaene-2,2,4-trione] | < 1 µM | ++ (++ is 30-60%) | ring closure, yield after HPLC ([1]; from Cc1ccc(S(=O)(=O)NC(=O)c2ccc(-n3ccc(OCCC4(C(F)(F)F)CC4)n3)nc2Cl)nc1OCCC[C@@H]1CN(C(=O)OC(C)(C)C)C(C)(C)C1, 15-membered ring, HCl (Boc off), K2CO3/CsF/3A MS, 62.8 mM, 140.0 °C, 2 steps): 32%
Cc1nn2cc1S(=O)(=O)NC(=O)c1ccc(-n3ccc(OCCC4(C(F)(F)F)CC4)n3)nc1N1C[C@@H](CCC2)CC1(C)C [Compound 112, (18S)-12,20,20-trimethyl-4-(3-{2-[1-(trifluoromethyl)cyclopropyl]ethoxy}-1H-pyrazol-1-yl)-10λ^6-thia-1,3,9,13,14-pentaazatetracyclo[16.2.1.111,14.02,7]docosa-2,4,6,11(22),12-pentaene-8,10,10-trione] | < 1 µM | ++ (++ is 30-60%) | ring closure, yield after HPLC ([1]; from Cc1nn(CCC[C@@H]2CNC(C)(C)C2)cc1S(=O)(=O)NC(=O)c1ccc(-n2ccc(OCCC3(C(F)(F)F)CC3)n2)nc1Cl, 14-membered ring, K2CO3/CsF, 37.8 mM, 160.0 °C): 26%
CC1(C)CC2CCCCNc3ccc(nc3)S(=O)(=O)NC(=O)c3ccc(-n4ccc(OCCC5(C(F)(F)F)CC5)n4)nc3N1C2 (stereo not drawn) [Compound 123, 12,12-Dimethyl-8-(3-{2-[1-(trifluoromethyl)cyclopropyl]ethoxy}-1H-pyrazol-1-yl)-2λ^6-thia-3,9,11,19,22-pentaazatetracyclo[18.2.2.111,14.05,10]pentacosa-1(22),5(10),6,8,20,23-hexaene-2,2,4-trione] | < 1 µM | +++ (+++ is >60%) | ring closure, yield after HPLC ([1]; from CC(C)(C)OC(=O)N1CC(CCCCNc2ccc(S(=O)(=O)NC(=O)c3ccc(-n4ccc(OCCC5(C(F)(F)F)CC5)n4)nc3Cl)nc2)CC1(C)C, 17-membered ring, K2CO3/CsF/3A MS, 110.5 mM, 150.0 °C, 2 steps): 4%

Reference: patent US11866450B2, “Modulators of Cystic Fibrosis Transmembrane Conductance regulator, pharmaceutical compositions, methods of treatment, and process for making the modulators” (priority 2018, dated 2024)
